From patent EP4745130A1, “CRYSTAL FORMS OF TUBULIN-SRC DUAL-TARGETING INHIBITOR, PREPARATION METHOD THEREFOR AND USE THEREOF” (Hubei Bio-Pharmaceutical Industrial Technological Institute …, priority 2023, dated 2025)
In brackets after ≈: the same amount, converted by molar mass. Where a name gives a salt, the structure may show the parent alone. Read-outs that look alike come from different tables or passages of the source.

How the values were obtained:
[1] = Hygroscopicity test by dynamic vapor sorption (DVS); format: physicochemical
Protocol: The dynamic vapor sorption (DVS) curve was collected on DVS IntrInsic from SMS (surface measurement systems). The relative humidity at 25°C was corrected using the deliquescence points of LiCl, Mg(NO3)2, and KCl. Table 18 DVS test parameters
The percentage change in sample mass was collected under constant temperature at 25°C as humidity varied from 0%RH to 95%RH.

[2] = Solid-state stability (XRPD and HPLC after open storage); format: physicochemical; details: for Crystal form: XRPD
Protocol: The purity test, dynamic solubility test, and stability test in the assay were measured using an Agilent 1260 high-performance liquid chromatograph, and the salt formation molar ratio of ions was tested by ion chromatography, and the analytical conditions are shown in Table 19 and Table 20. Table 19 High-performance liquid chromatography test conditions

[3] = Variable humidity XRPD (VH-XRPD); format: physicochemical
Excerpt: The XRPD pattern was collected on an X-ray powder diffraction analyzer produced by PANalytacal, and the scanning parameters are shown in Table 16. Table 16 XRPD test parameters
Under low-humidity conditions (e.g., 30% RH), the sample reverts to the anhydrous crystal form A of the fumarate salt.

[4] = Dynamic solubility experiment at 37°C (water, SGF, FaSSIF, FeSSIF); details: for S: solubility: solid feed 10 mg/mL; for pH: pH value of the filtrate
Protocol: (§2) Rotating mixing was carried out at 37°C at a solid feed concentration of 10 mg/mL (calculated as the compound of Formula I). […] After sampling at each time point, the samples were centrifuged (10000 rpm) and filtered (0.45 µm PTFE filter head), and the HPLC concentration and pH value of the filtrate were measured.
(§3) 100 mg of NaCl and 50 mg of Triton X-100 were weighed into a 50 mL volumetric flask, and purified water was added to complete dissolution. 816 µL of 1 M hydrochloric acid was added thereto, and the pH was adjusted to 1.8 with 1 M hydrochloric acid or 1 M NaOH solution. Purified water was added to make up to volume.
(§4) 340 mg of anhydrous NaH2PO4 and 620 mg of NaCl were weighed into a 100 mL volumetric flask. Purified water was added to complete dissolution, followed by addition of 55.44 µL of 50% NaOH solution, and the pH was adjusted to 6.5 using 1M HCl or 1M NaOH solution. Purified water was added to make up to volume. 110 mg of SIF powder was then weighed into a 50 mL volumetric flask, added with the above solution to complete dissolution and make up to volume.
(§5) 0.82 mL of glacial acetic acid and 1.18 g of NaCl were added to a 100 mL volumetric flask. Purified water was added to complete dissolution, followed by addition of 528 µL of 50% NaOH solution, and the pH was adjusted to 5.0 using 1M HCl or 1M NaOH solution. Purified water was added to make up to volume. 560 mg of SIF powder was then weighed into a 50 mL volumetric flask, added with the above solution to complete dissolution and make up to volume.

tubulin = molecular target: T1, tubulin (Sus scrofa, UniProt P02550+P02554); assay: Inhibition test of tubulin monomer polymerization (Tubulin polymerization assay kit, fluorescence); format: biochemical; details: 5 µL of 12.5 µM compound solution; fluorescence ex 360 nm / em 420 nm, 37°C; larger value = lower inhibitory efficiency
T1 construct: purchased cytoskeleton BK011P
T1 sequence (P02550 whole entry): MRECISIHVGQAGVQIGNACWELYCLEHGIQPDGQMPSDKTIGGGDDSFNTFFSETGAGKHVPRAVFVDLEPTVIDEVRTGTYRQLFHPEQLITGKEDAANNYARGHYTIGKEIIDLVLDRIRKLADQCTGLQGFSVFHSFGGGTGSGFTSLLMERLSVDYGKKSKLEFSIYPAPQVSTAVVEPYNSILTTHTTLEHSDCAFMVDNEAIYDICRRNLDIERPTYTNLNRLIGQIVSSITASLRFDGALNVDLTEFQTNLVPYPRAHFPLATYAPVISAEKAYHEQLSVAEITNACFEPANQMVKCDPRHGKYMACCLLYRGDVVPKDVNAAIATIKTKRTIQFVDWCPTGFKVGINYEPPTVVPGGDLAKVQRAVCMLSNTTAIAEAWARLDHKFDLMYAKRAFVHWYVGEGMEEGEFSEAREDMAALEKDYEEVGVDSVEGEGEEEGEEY
T1 sequence (P02554 whole entry): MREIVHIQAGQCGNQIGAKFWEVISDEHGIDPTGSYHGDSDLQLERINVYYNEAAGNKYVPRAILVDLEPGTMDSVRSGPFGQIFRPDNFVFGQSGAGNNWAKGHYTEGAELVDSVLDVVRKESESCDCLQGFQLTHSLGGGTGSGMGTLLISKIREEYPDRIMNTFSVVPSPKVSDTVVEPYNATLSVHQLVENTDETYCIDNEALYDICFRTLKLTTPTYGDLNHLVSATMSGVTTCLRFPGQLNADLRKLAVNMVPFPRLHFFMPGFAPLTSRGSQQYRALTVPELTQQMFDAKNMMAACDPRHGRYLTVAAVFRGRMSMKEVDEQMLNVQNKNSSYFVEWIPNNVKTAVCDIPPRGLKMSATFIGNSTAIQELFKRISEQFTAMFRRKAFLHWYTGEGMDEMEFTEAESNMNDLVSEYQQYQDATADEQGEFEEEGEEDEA
Protocol: Tubulin polymerization assay kit (cytoskeleton, Cat. # BK011P) was used to conduct the compound inhibition test of tubulin monomer polymerization.
Before the test, the 96-well plate (Corning Costar, Cat. # 3686) supplied with the kit was first placed in a microplate reader (MD, SpectraMax M5) and heated to 37°C, maintained for 10 minutes. The 96-well plate was then removed, and 5 µL of 12.5 µM compound solution or blank solution was added thereto. The 96-well plate was then placed back into the microplate reader and incubated at 37°C for 1 minute to heat the compound solution to 37°C. The 96-well plate was removed and 50 µL of reaction mixture prepared according to the supplier's instructions was quickly added to each well, completing the sample addition within 1 minute to avoid the formation of bubbles. The 96-well plate was then immediately placed back into the microplate reader, shaken for 5 seconds, and using the Kinetic mode, continuous detection was carried out at 37°C for 30 to 60 minutes under the conditions of excitation light at 360 nm and emission light at 420 nm, with detection every 30 seconds. Taking the detection time as the X-axis and the fluorescence signal value as the Y-axis, the tubulin monomer polymerization curve was obtained. As shown in FIG. 66 and Table 40, the larger the Vmax value and the higher the maximum fluorescence signal value of the polymerization curve, the lower the inhibitory efficiency of the compound.

[5] = tested on: Human cutaneous squamous cell carcinoma cell A-431; assay: Cell proliferation inhibition test, A-431; format: cell-based; details: A-431, 96 h, 4 days incubation
Protocol: (§1) Human cutaneous squamous cell carcinoma cell A-431 (ATCC, CRL-1555) and actinic keratosis patient-derived cell HT 297.T (ATCC, CRL-7782) proliferation assays were used to detect the inhibitory effect of small molecular compounds on cell proliferation.
A-431 cells and HT 297.T cells were cultured in DMEM medium containing 10% fetal bovine serum and grown at 37°C in a 5% CO2 incubator. Cells on logarithmic phase were seeded into a 96-well cell culture plate at 1000 cells/well, 100 µL per well, and then cultured overnight at 37°C in a 5% CO2 incubator. The next day, 100 µL of gradient-diluted 2× test compound solution was added to each well, with DMSO serving as a positive control, and 10 µM staurosporine (Aladdin, S102392) was set as a negative control group. After the addition of the compounds, the culture plate was incubated for another 4 days at 37°C in a 5% CO2 incubator. After incubation, the Steady-Glo® luciferase assay system (Promega, G9243) was used according to the supplier's instructions to measure the fluorescence signal value on the Envision 2104 Multilabel Reader. The inhibition rate was calculated by the following formula, then the curve was plotted with the Log value of the inhibitor concentration as the X-axis and the inhibition rate as the Y-axis, and the IC50 was calculated using Graphpad 8.0. [formula] […]

[6] = tested on: actinic keratosis patient-derived cell HT 297.T; assay: Cell proliferation inhibition test, HT 297.T; format: cell-based, Human; details: Homo sapiens, 96 h; 4 days incubation
Protocol: as §1
A-431 cells and HT 297.T cells were cultured in DMEM medium containing 10% fetal bovine serum and grown at 37°C in a 5% CO2 incubator. Cells on logarithmic phase were seeded into a 96-well cell culture plate at 1000 cells/well, 100 µL per well, and then cultured overnight at 37°C in a 5% CO2 incubator. The next day, 100 µL of gradient-diluted 2× test compound solution was added to each well, with DMSO serving as a positive control, and 10 µM staurosporine (Aladdin, S102392) was set as a negative control group. After the addition of the compounds, the culture plate was incubated for another 4 days at 37°C in a 5% CO2 incubator. After incubation, the Steady-Glo® luciferase assay system (Promega, G9243) was used according to the supplier's instructions to measure the fluorescence signal value on the Envision 2104 Multilabel Reader. The inhibition rate was calculated by the following formula, then the curve was plotted with the Log value of the inhibitor concentration as the X-axis and the inhibition rate as the Y-axis, and the IC50 was calculated using Graphpad 8.0. [formula] Table 41: Inhibition results of test compounds on proliferation activity of A-431 and HT 297.T cells

[7] = Thermodynamic solubility test; format: physicochemical; details: thermodynamic from solid, 4 mg/mL, overnight at room temperature
Protocol: Phosphate buffer saline (PBS) with a pH of 7.4, FeSSIF solution with a pH of 6.5, and FaSSGF solution with a pH of 1.6 were prepared. The compound was accurately weighed and added to prepared phosphate buffer saline with a pH of 7.4, FeSSIF solution with a pH of 6.5, and FaSSGF solution with a pH of 1.6 to prepare into a solution with a concentration of 4 mg/mL. The solution was shaken at a speed of 1000 rpm for 1 hour, and then incubated overnight at room temperature. The incubated solution was centrifuged at 12,000 rpm for 10 minutes to remove undissolved particles, and the supernatant was transferred to a new centrifuge tube. After the supernatant was appropriately diluted, an acetonitrile solution containing internal standard was added, and a standard curve prepared with the same matrix was used for quantification. Table 42: Thermodynamic solubility test results

[8] = Pharmacokinetic test in mice; format: in vivo; details: mouse, plasma, male ICR mice
Protocol: For the pharmacokinetic test in mice, 3 male ICR mice, 20 to 25 g, were used, fasted overnight, and administered by tail vein injection (1 mg/kg or 5 mg/kg). Blood was collected before the administration, and at 15 min, 30 min, 1 hour, 2 hours, 4 hours, 8 hours, and 24 hours after the administration. Another 3 mice were taken and administered by oral gavage (5 mg/kg), and blood was collected before the administration, and at 15 min, 30 min, 1 hour, 2 hours, 4 hours, 8 hours, and 24 hours after the administration. Blood samples were centrifuged at 6800 g at 2 to 8°C for 6 min, and plasma was collected and stored at -80°C. The plasma at each time point was taken and added with an acetonitrile solution containing internal standard in 3 to 5 times the amount. The mixture was vortexed and mixed for 1 min, and centrifuged at 13,000 rpm at 4°C for 10 min. The supernatant was collected, added with water in 3 times the amount, and mixed. An appropriate amount of the mixture was taken for LC-MS/MS analysis. The main pharmacokinetic parameters were analyzed using WinNonlin 7.0 software with non-compartmental model. Table 43: Results 1 of pharmacokinetic tests in mice

[9] = Human liver microsome stability test; format: in vitro ADME; details: human liver microsomes, NADPH, 37°C, 0-45 min
Protocol: The human liver microsome stability test was performed by incubating the compound and human liver microsomes in vitro. First, the compound to be tested was prepared into a 10 mM stock solution in DMSO solvent, and then the compound was diluted to 0.5 mM with acetonitrile. Human liver microsomes (Corning) were diluted with PBS into a microsome/buffer solution, and the solution was used to dilute 0.5 mM compound into a working solution, in which the concentration of the compound was 1.5 µM, and the concentration of human liver microsomes was 0.75 mg/mL. A deep-well plate was taken, 30 µL of the working solution was added per well, and then 15 µL of pre-heated 6 mM NADPH solution was added thereto to initiate a reaction, and the reaction was incubated at 37°C. At 0, 5, 15, 30 and 45 min of the incubation, 135 µL of acetonitrile was added to the corresponding wells to terminate the reaction. After the reaction was terminated with acetonitrile at the last time point of 45 min, the deep-well plate was vortexed and shaken for 10 min (600 rpm), and then centrifuged for 15 min. After centrifugation, the supernatant was collected, and added with purified water in a ratio of 1:1 to perform LC-MS/MS detection. A ratio of a peak area of compound to a peak area of internal standard at each time point was obtained, and the peak area ratios of the compound at 5, 15, 30 and 45 min were compared with the peak area ratio at 0 min to calculate the remaining percentage of the compound at each time point. T1/2 was calculated by using GraphPad 5 software. Table 45: Results of human liver microsome stability test

[10] = intravenous injection administration (1 mg/kg)
[11] = oral gavage administration (5 mg/kg)

Protocol for physchem: as §2, §3, §4, §5

In the case of `Cc1cc(OCCN2C[C@H]3COC[C@H]3C2)ccc1-c1ccc(CC(=O)NCc2ccccc2)nc1` [Crystal form A of fumarate salt], the hygroscopicity ([1]; DVS, 25°C, 0%RH to 95%RH, listed as crystal form A of the fumarate salt) is reported as “significantly hygroscopic above 70% RH”, the “weight change in DVS test” value ([1]; high-humidity conditions (>70% RH)) is reported as “significant weight gain” and the “Purity (area%)” value ([2]; 25°C/60%RH/open, 1 week) is reported as 97.02 area%. For the same compound, the “Relative to initial (%)” value ([2]; 25°C/60%RH/open, 1 week) was 100.0%, the Crystal form ([2]; 25°C/60%RH/open, 1 week) was “Crystal form A of fumarate salt” and the “Purity (area%)” value ([2]; 40°C/75%RH/open, 1 week) was 97.09 area%. The “Relative to initial (%)” value ([2]; 40°C/75%RH/open, 1 week) was 100.1%, the Crystal form ([2]; 40°C/75%RH/open, 1 week) was “Crystal form A of fumarate salt” and the “Purity (area%)” value ([2]; Initial) was 96.99 area%. For the same compound, the “XRPD change at high humidity” value ([3]; placed at 85% RH) was “shift in diffraction peaks”, the “crystal form after return to low humidity” value ([3]; returned to 30% RH) was “converted back to the crystal form A of the fumarate salt” and the solubility at 1 h (physchem; fessif) was 3630 µg/mL. The solubility at 4 h (physchem; fessif) was 3600 µg/mL, the solubility at 24 h (physchem; fessif) was 3610 µg/mL and the solubility at 1 h (physchem; sgf) was 9650 µg/mL. The solubility at 4 h (physchem; sgf) was 9820 µg/mL, the solubility at 24 h (physchem; sgf) was 9170 µg/mL and the “S: solubility” value ([4]; FaSSIF, 1 hour, 60 min) was 8.72 mg/mL. The “S: solubility” value ([4]; FaSSIF, 4 hours, 240 min) was 8.94 mg/mL, the “S: solubility” value ([4]; FaSSIF, 24 hours, 1440 min) was 8.24 mg/mL and the “S: solubility” value ([4]; H2O, 1 hour, 60 min) was 9.44 mg/mL. For the same compound, the “S: solubility” value ([4]; H2O, 4 hours, 240 min) was 9.72 mg/mL, the “S: solubility” value ([4]; H2O, 24 hours, 1440 min) was 9.38 mg/mL and the pH ([4]; FaSSIF, 1 hour) was 4.3. For the same compound, the pH ([4]; FaSSIF, 4 hours) was 4.4, the pH ([4]; FaSSIF, 24 hours) was 4.4 and the pH ([4]; FeSSIF, 1 hour) was 4.6. For the same compound, the pH ([4]; FeSSIF, 4 hours) was 4.6, the pH ([4]; FeSSIF, 24 hours) was 4.6 and the pH ([4]; H2O, 1 hour) was 4.0. It also gave a pH ([4]; H2O, 4 hours) of 4.0, a pH ([4]; H2O, 24 hours) of 4.0 and a pH ([4]; SGF, 1 hour) of 3.4. For the same compound, the pH ([4]; SGF, 4 hours) was 3.4 and the pH ([4]; SGF, 24 hours) was 3.4.
Work on `O=C(Cc1ccc(-c2ccc(OCCN3CCOCC3)cc2)cn1)NCc1ccccc1` [Control compound, Tirbanibulin, reference compound] yielded a Maximum signal value (tubulin) of 611, an IC50 [5] of 40.3 nM and an IC50 [6] of 85.4 nM. The solubility ([7]; FeSSIF solution, FeSSIF (pH 6.5), read-out: Solubility (µg/mL) FeSSIF (pH 6.5)) was 60.5 µg/mL (≈ 140 µM), the solubility ([7]; phosphate buffer saline (PBS), aqueous buffer, PBS (pH 7.4), read-out: Solubility (µg/mL) PBS (pH 7.4)) was 9.77 µg/mL (≈ 22.6 µM) and the AUC(0-t) [8, 10] was 525 ng·h/mL. It also gave a clearance [8, 10] of 31.3 mL/min/kg, an AUC(0-t) [8, 11] of 1820 ng·h/mL and a Cmax [8, 11] of 1010 ng/mL. For the same compound, the half-life at 1 µM [9] was 32.2 min.
